Experiments:
Type in all cases: functional, cell-based
[1] = biological target: T1, Broad substrate specificity ATP-binding cassette transporter ABCG2 (Mus musculus, UniProt Q7TMS5); test: TP_TRANSPORTER: inhibition of Topotecan transepithelial transport (basal to apical)(Topotecan: 10uM, GF120918:10uM) in Bcrp1-expressing LLC-PK1 cells; details: pig, llc-pk1, 10 µM
T1 sequence (Q7TMS5 whole entry): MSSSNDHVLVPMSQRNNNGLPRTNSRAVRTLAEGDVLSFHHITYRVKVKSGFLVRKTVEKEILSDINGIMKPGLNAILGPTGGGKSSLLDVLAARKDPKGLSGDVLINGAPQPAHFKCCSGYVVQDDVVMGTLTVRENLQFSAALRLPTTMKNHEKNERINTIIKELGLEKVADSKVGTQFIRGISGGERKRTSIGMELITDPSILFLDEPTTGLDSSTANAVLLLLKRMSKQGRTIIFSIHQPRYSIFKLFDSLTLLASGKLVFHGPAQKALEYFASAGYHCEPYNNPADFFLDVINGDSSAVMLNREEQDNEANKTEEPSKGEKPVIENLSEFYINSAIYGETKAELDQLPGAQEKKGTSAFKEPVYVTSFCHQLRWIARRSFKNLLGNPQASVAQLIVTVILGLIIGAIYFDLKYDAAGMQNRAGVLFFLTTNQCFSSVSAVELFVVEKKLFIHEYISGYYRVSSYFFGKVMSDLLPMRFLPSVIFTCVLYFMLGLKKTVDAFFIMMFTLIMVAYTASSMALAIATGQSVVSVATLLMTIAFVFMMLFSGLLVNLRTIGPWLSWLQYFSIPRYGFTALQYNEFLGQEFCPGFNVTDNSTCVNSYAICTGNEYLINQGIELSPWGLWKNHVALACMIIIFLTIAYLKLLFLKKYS

[2] = biological target: T1, Broad substrate specificity ATP-binding cassette transporter ABCG2; test: TP_TRANSPORTER: transepithelial transport (basal to apical) in Bcrp1-expressing LLC-PK1 cells; details: pig
[3] = biological target: T1, Broad substrate specificity ATP-binding cassette transporter ABCG2; test: TP_TRANSPORTER: inhibition of Topotecan transepithelial transport (basal to apical) in Bcrp1-expressing LLC-PK1 cells; details: pig

Structure (SMILES): COc1cc2c(cc1OC)CN(CCc1ccc(NC(=O)c3cccc4c(=O)c5cccc(OC)c5[nH]c34)cc1)CC2.Cl [ELACRIDAR HYDROCHLORIDE]
- Activity [1]: inhibitor [+]

Structure (SMILES): CC[C@@]1(O)C(=O)OCc2c1cc1n(c2=O)Cc2cc3c(CN(C)C)c(O)ccc3nc2-1 [TOPOTECAN]
- Activity [2]: substrate [+]

Structure (SMILES): C/C=C/C[C@@H](C)C(=O)[C@H]1C(=O)N[C@@H](C(C)C)C(=O)N(C)CC(=O)N(C)[C@@H](CC(C)C)C(=O)N[C@@H](C(C)C)C(=O)N(C)[C@@H](CC(C)C)C(=O)N[C@@H](C)C(=O)N[C@H](C)C(=O)N(C)[C@@H](CC(C)C)C(=O)N(C)[C@@H](CC(C)C)C(=O)N(C)[C@@H](C(C)C)C(=O)N1C [VALSPODAR]
- Activity [3]: is not an inhibitor [-]
